The results in this text go back to US9260429B2, “Pyrido[3,4-B]indoles and methods of use” (Medivation Technologies, Inc., priority 2008, dated 2016).

Read-outs that look alike come from different tables or passages of the source.

For test [1], the target named is T1, human recombinant adrenergic α2A receptor (Homo sapiens, UniProt P08913).
T1 construct: expressed in transfected cells; host or cells: insect Sf9 cells
T1 sequence (P08913 1-465): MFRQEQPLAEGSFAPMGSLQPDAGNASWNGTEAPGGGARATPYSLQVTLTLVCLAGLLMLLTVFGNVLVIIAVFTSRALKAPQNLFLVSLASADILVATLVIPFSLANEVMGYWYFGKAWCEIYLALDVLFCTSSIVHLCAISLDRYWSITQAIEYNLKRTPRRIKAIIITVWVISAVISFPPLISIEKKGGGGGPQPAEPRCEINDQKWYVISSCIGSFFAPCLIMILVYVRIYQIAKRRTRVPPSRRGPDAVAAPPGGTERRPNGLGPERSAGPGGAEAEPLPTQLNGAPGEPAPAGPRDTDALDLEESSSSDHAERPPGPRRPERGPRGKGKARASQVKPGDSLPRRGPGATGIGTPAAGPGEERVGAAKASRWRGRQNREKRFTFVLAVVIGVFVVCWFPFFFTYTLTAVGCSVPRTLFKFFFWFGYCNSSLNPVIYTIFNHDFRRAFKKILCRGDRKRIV
The experiment in a line: Adrenergic α2A radioligand binding ([3H]MK-912). The procedure: To evaluate in radioligand binding assays the activity of compounds of the invention, human recombinant adrenergic α2A receptor expressed in insect Sf9 cells (Uhlen S et al. J Pharmacol Exp Ther. 271:1558, 1994) in a modified Tris-HCl buffer (50 mM Tris-HCl, pH 7.4, 12.5 mM MgCl2, 2 mM EDTA) was used. Compounds of invention were incubated with 1 nM [^3H]MK-912 for 60 minutes at 25° C. MK912 is (2S-trans)-1,3,4,5′,6,6′,7,12b-octahydro-1′,3′-dimethyl-spiro[2H-benzofuro[2,3-a]quinolizine-2,4′(1′H)-pyrimidin]-2′(3′H)-one hydrochloride Non-specific binding was estimated in the presence of 10 μM WB-4101 (2-(2,6-Dimethoxyphenoxyethyl)aminomethyl-1,4-benzodioxane hydrochloride). Receptor proteins were filtered and washed, the filters were then counted to determine [^3H]MK-912 specifically bound. Compounds were screened at 1 μM or lower, using 1% DMSO as vehicle. Biochemical assay results are presented as the percent inhibition of specific binding in Table 4.

Test [2] addresses T2, human recombinant dopamine D2L receptor (Homo sapiens, UniProt P14416).
T2 construct: expressed in transfected cells; host or cells: CHO cells
The test can be described thus: Dopamine D2L radioligand binding ([3H]Spiperone). The following applies: for inhibition at 3 µM: compound concentration 3 μM; for inhibition at 10 µM: compound concentration 10 μM. The procedure, abridged: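 CHO-expressed receptor in 50 mM Tris-HCl pH 7.4 with ascorbic acid, 0.001% BSA, 150 mM NaCl; 0.16 nM [3H]spiperone, 120 min at 25 °C; nonspecific binding with haloperidol.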

Test [3] concerns the target T3, human recombinant serotonin (5-Hydroxytryptamine) 5-HT2C receptor (Homo sapiens, UniProt P28335).
T3 construct: expressed in transfected cells; host or cells: CHO-K1 cells
T3 sequence (P28335 33-458): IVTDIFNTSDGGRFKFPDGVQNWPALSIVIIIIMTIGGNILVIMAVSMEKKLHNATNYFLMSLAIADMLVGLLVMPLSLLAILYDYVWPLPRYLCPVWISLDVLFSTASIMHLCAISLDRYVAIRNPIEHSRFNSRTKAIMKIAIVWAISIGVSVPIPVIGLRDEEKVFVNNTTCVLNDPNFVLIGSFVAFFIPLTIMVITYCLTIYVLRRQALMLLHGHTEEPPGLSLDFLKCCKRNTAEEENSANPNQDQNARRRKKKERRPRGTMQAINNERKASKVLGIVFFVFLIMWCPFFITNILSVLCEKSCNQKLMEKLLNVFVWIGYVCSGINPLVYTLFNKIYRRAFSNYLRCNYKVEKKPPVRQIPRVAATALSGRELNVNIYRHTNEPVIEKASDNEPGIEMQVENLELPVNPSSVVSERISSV
The experiment in a line: Serotonin 5-HT2C radioligand binding ([3H]Mesulergine). The following applies: for inhibition at 0.003 µM: compound concentration 3 nM; for inhibition at 0.01 µM: compound concentration 10 nM; for inhibition at 0.03 µM: compound concentration 0.03 μM; for inhibition at 0.1 µM: compound concentration 0.1 μM; for inhibition at 0.3 µM: compound concentration 0.3 μM. The procedure: Compounds of the invention were incubated with 1 nM [^3H]Mesulergine for 60 minutes at 25° C. Non-specific binding was estimated in the presence of 1 μM Mianserin. Receptor proteins were filtered and washed, the filters were then counted to determine [^3H]Mesulergine specifically bound. […] Biochemical assay results are presented as the percent inhibition of specific binding in Table 5.

Test [4] addresses T4, human recombinant serotonin (5-Hydroxytryptamine) 5-HT6 receptor (Homo sapiens, UniProt P50406).
T4 construct: expressed in transfected cells; host or cells: human HeLa cells
The test can be described thus: Serotonin 5-HT6 radioligand binding ([3H]LSD). The note with it: for inhibition at 0.003 µM: compound concentration 3 nM; for inhibition at 0.01 µM: compound concentration 10 nM; for inhibition at 0.03 µM: compound concentration 0.03 μM; for inhibition at 0.1 µM: compound concentration 0.1 μM; for inhibition at 0.3 µM: compound concentration 0.3 μM. The method in brief: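 Human 5-HT6 receptor expressed in HeLa cells, in Tris-HCl pH 7.4 with 150 mM NaCl, ascorbic acid and BSA. Compounds at 1 μM or lower (1% DMSO) incubated 120 min at 37° C with 1.5 nM [3H]LSD. Non-specific binding defined with serotonin; filter counting gives % inhibition of specific binding.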

[5] abbreviates: 1 h, read-out: Percent Inhibition of ligand binding Adrenergic (1 μM ligand conc.) α2A.
[6] abbreviates: compound concentration 1 μM, read-out: Percentage inhibition of ligand binding to Adrenergic α2A receptor.
The mark [7] stands for this setting: 2 h, 1 μM ligand conc., read-out: Percent Inhibition of ligand binding Dopamine (1 μM ligand conc.) D2L.
Where [8] appears, read: compound concentration 1 μM, read-out: Percentage inhibition of ligand binding to D2L receptor.
[9] abbreviates: read-out: Percentage inhibition of ligand binding to D2L receptor.
[10] abbreviates: 1 h, read-out: Percent Inhibition of ligand binding Serotonin (1 μM ligand concentration) 5-HT2C.
[11] abbreviates: read-out: Percentage inhibition of ligand binding to 5-HT2C receptor.
Where [12] appears, read: compound concentration 1 μM, read-out: Percentage inhibition of ligand binding to 5-HT2C receptor.
The mark [13] stands for this setting: 2 h, read-out: Percent Inhibition of ligand binding Serotonin (1 μM ligand concentration) 5-HT6.
[14] abbreviates: read-out: Percentage inhibition of ligand binding to 5-HT6 receptor.
[15] abbreviates: compound concentration 1 μM, read-out: Percentage inhibition of ligand binding to 5-HT6 receptor.

T4 sequence (P50406 whole entry): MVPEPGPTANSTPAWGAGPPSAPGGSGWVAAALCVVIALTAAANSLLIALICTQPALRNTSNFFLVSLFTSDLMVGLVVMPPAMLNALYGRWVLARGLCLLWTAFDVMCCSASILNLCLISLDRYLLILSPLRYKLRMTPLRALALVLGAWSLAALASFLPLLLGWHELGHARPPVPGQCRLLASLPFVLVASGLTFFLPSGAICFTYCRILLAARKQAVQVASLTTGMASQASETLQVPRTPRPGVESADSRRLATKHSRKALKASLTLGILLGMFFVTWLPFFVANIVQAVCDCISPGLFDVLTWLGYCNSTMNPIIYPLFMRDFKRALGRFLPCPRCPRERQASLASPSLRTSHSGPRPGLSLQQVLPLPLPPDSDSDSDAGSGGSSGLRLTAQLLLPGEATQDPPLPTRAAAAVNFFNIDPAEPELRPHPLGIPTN
T2 sequence (P14416 whole entry): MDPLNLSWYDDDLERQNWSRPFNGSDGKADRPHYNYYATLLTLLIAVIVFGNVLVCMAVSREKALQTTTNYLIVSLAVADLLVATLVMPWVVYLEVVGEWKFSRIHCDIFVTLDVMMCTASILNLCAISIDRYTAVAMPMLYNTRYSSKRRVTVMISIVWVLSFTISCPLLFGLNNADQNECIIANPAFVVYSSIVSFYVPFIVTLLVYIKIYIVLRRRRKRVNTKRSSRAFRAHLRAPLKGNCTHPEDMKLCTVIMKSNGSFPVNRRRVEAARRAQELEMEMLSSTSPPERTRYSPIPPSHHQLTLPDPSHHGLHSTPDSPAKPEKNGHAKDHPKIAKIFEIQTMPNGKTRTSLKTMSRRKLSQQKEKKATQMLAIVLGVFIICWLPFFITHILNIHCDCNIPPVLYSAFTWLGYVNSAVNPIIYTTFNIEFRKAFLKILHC

As to `C/C(=C\n1c2c(c3cc(Cl)ccc31)CCN(C)C2)c1ccc(F)cc1` [Compound 90, (E)-6-chloro-9-(2-(4-fluorophenyl)prop-1-enyl)-2-methyl-2,3,4,9-tetrahydro-1H-pyrido[3,4-b]indole], the inhibition at 1 µM in test [1] (setting [5]) is 88%; in test [1] (setting [6]), 88%; in test [2] (setting [7]), 36%; in test [2] (setting [8]), 39%; in test [3] (setting [10]) it was 99%; in test [3] (setting [12]), 99%. The inhibition at 1 µM in test [4] (setting [13]) and in test [4] (setting [15]) was 98% in each case. Further, the inhibition at 3 µM in test [2] (setting [9]) stood at 70%. For the same compound, the inhibition at 10 µM in test [2] (setting [9]) stood at 91%. In addition, the results for the inhibition at 0.003 µM in test [3] (setting [11]) and in test [4] (setting [14]) were 22% and 16%, respectively. In addition, the inhibition at 0.01 µM was 37% in test [3] (setting [11]) and 32% in test [4] (setting [14]). Further, the inhibition at 0.03 µM in test [3] (setting [11]) came out at 65%; in test [4] (setting [14]) it was 58%. Also, the inhibition at 0.1 µM in test [3] (setting [11]) came to 82%; in test [4] (setting [14]), 81%. The inhibition at 0.3 µM turned out to be 93% in test [3] (setting [11]) and 94% in test [4] (setting [14]).

Consider `C/C(=C\n1c2c(c3cc(C)ccc31)CCN(C)C2)c1ccc(F)cc1` [Compound 91, (E)-9-(2-(4-fluorophenyl)prop-1-enyl)-2,6-dimethyl-2,3,4,9-tetrahydro-1H-pyrido[3,4-b]indole], for which the inhibition at 1 µM in test [1] (setting [5]) stood at 95%; in test [1] (setting [6]), 95%; in test [2] (setting [7]), 27%; in test [2] (setting [8]), 44%; in test [3] (setting [10]) it was 104%; in test [3] (setting [12]), 104%. Besides, the inhibition at 1 µM in test [4] (setting [13]) and in test [4] (setting [15]) was 100% each time. For the same compound, the inhibition at 3 µM in test [2] (setting [9]) worked out at 64%. Also, the inhibition at 10 µM in test [2] (setting [9]) is 91%. Besides, the values for the inhibition at 0.003 µM in test [3] (setting [11]) and in test [4] (setting [14]) were 22% and 15%, respectively. Besides, the inhibition at 0.01 µM in test [3] (setting [11]) came out at 58%; in test [4] (setting [14]), 42%. Also, the inhibition at 0.03 µM in test [3] (setting [11]) came to 77%; in test [4] (setting [14]), 68%. Besides, the inhibition at 0.1 µM turned out to be 87% in test [3] (setting [11]) and 84% in test [4] (setting [14]). Also, the inhibition at 0.3 µM in test [3] (setting [11]) was 93%; in test [4] (setting [14]), 96%.

As for `Cc1ccc2c(c1)c1c(n2/C=C/c2ccccc2)CN(C)CC1` [Compound 92], the inhibition at 1 µM in test [1] (setting [5]) came to 96%; in test [1] (setting [6]) it was 96%; in test [2] (setting [7]), 47%; in test [2] (setting [8]), 47%; in test [3] (setting [10]), 96%; in test [3] (setting [12]), 96%. Moreover, the inhibition at 1 µM in test [4] (setting [13]) and in test [4] (setting [15]) was 96% throughout. Also, the inhibition at 3 µM in test [2] (setting [9]) is 72%. In addition, in test [4] (setting [14]), the inhibition at 0.01 µM worked out at 14%. In test [4] (setting [14]), the inhibition at 0.03 µM came out at 28%. In addition, the inhibition at 0.1 µM in test [4] (setting [14]) is 60%. For the same compound, the inhibition at 0.3 µM in test [4] (setting [14]) came to 81%.

`C/C(=C\n1c2c(c3cc(C)ccc31)CCN(C)C2)c1ccc(Cl)cc1` [Compound 97, 9-(2-(4-chlorophenyl)prop-1-enyl)-2,6-dimethyl-2,3,4,9-tetrahydro-1H-pyrido[3,4-b]indole]: the inhibition at 1 µM in test [1] (setting [5]) is 91%; in test [2] (setting [7]), 15%; in test [3] (setting [10]), 99%; in test [4] (setting [13]) it was 72%.

Consider `C/C(=C\n1c2c(c3cc(Cl)ccc31)CCN(C)C2)c1ccc(Cl)cc1` [Compound 98, 6-chloro-9-(2-(4-chlorophenyl)prop-1-enyl)-2-methyl-2,3,4,9-tetrahydro-1H-pyrido[3,4-b]indole], for which the inhibition at 1 µM in test [1] (setting [5]) came to 74%; in test [2] (setting [7]) it was 32%; in test [3] (setting [10]), 103%; in test [4] (setting [13]) it was 79%.

As to `C/C(=C\n1c2c(c3cc(Cl)ccc31)CCN(C)C2C)c1ccc(Cl)cc1` (stereo not shown) [Compound 99, 6-chloro-9-(2-(4-chlorophenyl)prop-1-enyl)-1,2-dimethyl-2,3,4,9-tetrahydro-1H-pyrido[3,4-b]indole], the inhibition at 1 µM in test [1] (setting [5]) was 59%; in test [2] (setting [7]), -7%; in test [3] (setting [10]), 97%; in test [4] (setting [13]), 69%.

For the compound `CCC1c2c(c3cc(Cl)ccc3n2/C=C(\C)c2ccc(Cl)cc2)CCN1C` (stereo not shown) [Compound 100, 6-chloro-9-(2-(4-chlorophenyl)prop-1-enyl)-1-ethyl-2-methyl-2,3,4,9-tetrahydro-1H-pyrido[3,4-b]indole], the inhibition at 1 µM was 56% in test [1] (setting [5]), -11% in test [2] (setting [7]), 98% in test [3] (setting [10]) and 23% in test [4] (setting [13]).

For the compound `C#CCn1c2c(c3cc(Cl)ccc31)CCN(C)C2` [Compound 125, 6-chloro-2,3,4,9-tetrahydro-2-methyl-9-(prop-2-yn1)-1H-pyrido[3,4-b]indole], the inhibition at 1 µM amounted to 89% in test [1] (setting [5]), 19% in test [2] (setting [7]) and 66% in test [4] (setting [13]). Besides, in test [3] (1 μM ligand concentration), the “Percent Inhibition of ligand binding Serotonin (1 μM ligand concentration) 5-HT2C” value came to 74%.

`CC1c2c(c3cc(Cl)ccc3n2C#Cc2ccc(F)cc2)CCN1C` (stereo not shown) [Compound 128]: the inhibition at 1 µM amounted to 81% in test [1] (setting [5]), 14% in test [2] (setting [7]), 101% in test [3] (setting [10]) and 90% in test [4] (setting [13]).

For the compound `CCC1c2c(c3cc(Cl)ccc3n2C#Cc2ccc(F)cc2)CCN1C` (stereo not shown) [Compound 129], the inhibition at 1 µM in test [1] (setting [5]) is 75%; in test [2] (setting [7]) it was -8%; in test [3] (setting [10]), 107%; in test [4] (setting [13]), 22%.

As to `CC1c2c(c3cc(Cl)ccc3n2C#Cc2ccc(Cl)cc2)CCN1C` (stereo not shown) [Compound 132, 6-chloro-9-((4-chlorophenyl)ethynyl)-1,2-dimethyl-2,3,4,9-tetrahydro-1H-pyrido[3,4-b]indole], the inhibition at 1 µM in test [1] (setting [5]) was 13%; in test [2] (setting [7]), -6%; in test [3] (setting [10]), 94%; in test [4] (setting [13]) it was 17%.
